The values that follow come from paper PMC7555825, “New Insights of the Zn(II)-Induced P2 × 4R Positive Allosteric Modulation: Role of Head Receptor Domain SS2/SS3, E160 and D170” (International Journal of Molecular Sciences, 2020).

Series [1] concerns the target T1, rP2 × 4R (Rattus norvegicus, UniProt P51577).
T1 construct: host or cells: Xenopus laevis oocytes (intranuclear plasmid injection, pcDNA3)
T1 sequence (P51577 1-388): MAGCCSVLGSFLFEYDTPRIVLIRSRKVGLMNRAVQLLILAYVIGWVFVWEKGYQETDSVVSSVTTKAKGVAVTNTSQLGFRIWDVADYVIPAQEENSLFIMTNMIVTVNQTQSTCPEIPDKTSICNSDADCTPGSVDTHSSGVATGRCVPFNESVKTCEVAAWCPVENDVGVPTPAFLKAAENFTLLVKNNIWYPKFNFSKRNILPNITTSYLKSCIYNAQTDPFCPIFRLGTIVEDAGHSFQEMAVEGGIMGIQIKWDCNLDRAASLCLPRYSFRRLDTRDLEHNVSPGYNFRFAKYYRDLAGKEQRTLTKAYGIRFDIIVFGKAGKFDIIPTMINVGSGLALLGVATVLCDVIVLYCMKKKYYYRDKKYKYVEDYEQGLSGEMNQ
Put plainly: Short protocol: Zn(II) potentiation of single 10 µM ATP-evoked currents before/after thiol reagent treatment, rP2 × 4R oocytes. The settings on record: for effect of alkylator plus Zn(II) treatment on Zn(II)-induced potentiation: 300 µM alkylator + 10 µM Zn(II). The class given is cell-based. The procedure: (§1) A simpler and shorter assay to test the Zn(II) potentiation was developed to better assess the loss of Zn(II) modulation elicited by the joint co-treatment of NEM plus Zn(II). […] Ten minutes after alkylator washout, cells were treated with Zn(II) plus NEM or iodoacetamide (IA) for 5 min followed by 20 min of alkylator washout. Next, the P2 × R was tested again to examine the magnitude of the Zn(II) potentiation.
(§2) After 10 min of washout we applied 300 µM NEM, 300 µM IA, 300 µM IAc, or 300 µM DTNB for 5 min in absence or presence of Zn(II) (10 µM for rP2 × 4R and 30 µM for rP2 × 2R).
(§3) After 10 min of washout we applied 300 µM NEM + 10 µM DTT.

Series [2] deals with oocytes. Put plainly: Toxicity of DTT to oocytes (loss of holding potential). The series is classed as cell-based, Xenopus laevis. The settings on record: DTT concentrations larger than 100 µM; holding potential lost. On the procedure: Larger DTT concentrations were toxic since the oocyte holding potential was lost, a likely acute toxicity indication.
as §3

The target in series [3] is T1, rP2 × 4R. Put plainly: Short protocol: Zn(II) potentiation of single 10 µM ATP-evoked currents before/after thiol reagent treatment, rP2 × 4R oocytes. The series is classed as cell-based. The settings on record: 10, 30, 100 µM DTT.
For series [4], the target named is T2, rP2 × 2R (Rattus norvegicus, UniProt P49653).
T2 sequence (P49653 1-472): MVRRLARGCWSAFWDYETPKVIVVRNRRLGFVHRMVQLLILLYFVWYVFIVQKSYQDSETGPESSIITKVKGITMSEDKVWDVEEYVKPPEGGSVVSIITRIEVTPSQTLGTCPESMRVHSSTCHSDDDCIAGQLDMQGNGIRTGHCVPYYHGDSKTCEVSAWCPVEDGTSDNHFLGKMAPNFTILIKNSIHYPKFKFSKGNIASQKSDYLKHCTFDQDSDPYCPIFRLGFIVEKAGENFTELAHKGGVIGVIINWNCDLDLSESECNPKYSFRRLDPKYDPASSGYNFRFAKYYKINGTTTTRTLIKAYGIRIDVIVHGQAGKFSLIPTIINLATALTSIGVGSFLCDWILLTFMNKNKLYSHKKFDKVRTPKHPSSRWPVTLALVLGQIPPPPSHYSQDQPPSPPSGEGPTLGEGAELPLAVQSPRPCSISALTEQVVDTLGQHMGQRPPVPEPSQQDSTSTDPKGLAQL
The series can be described thus: Short protocol: Zn(II) potentiation of single 10 µM ATP-evoked currents before/after thiol reagent treatment, rP2 × 2R oocytes. The series is classed as cell-based. Also noted: expressed in transfected cells; host or cells: Xenopus laevis oocytes (intranuclear plasmid injection). The settings on record: for effect of alkylator plus Zn(II) treatment on Zn(II) potentiation/modulation: 300 µM alkylator + 30 µM Zn(II), 5 min, 20 min washout. On the procedure: as §1, §2

Series [5] deals with T1, rP2 × 4R. Also on record: method as in PMID 17962187. The settings on record: treatment in the absence of Zn(II); cited from earlier work.
Series [6] concerns the target T1, rP2 × 4R. Put plainly: ATP concentration–response curves, two-electrode voltage clamp in oocytes expressing wild type rP2 × 4R. The class given is cell-based. The conditions noted are these: NEM plus Zn(II) treatment; irreversible alkylation. On the technique in general: Two-electrode voltage clamp is typically applied to oocytes expressing channels or transporters.

Each structure is given as a SMILES string.

Turning to `O[C@@H](CS)[C@@H](O)CS` (racemic) [DTT, dithiothreitol], the “fold enhancement of ATP-evoked currents after treatment” value (“fold enhancement” for short) in series [1] (after combined 10 µM DTT plus 300 µM NEM treatment, 5 min, 20 min washout) is reported as 3.9 ± 1.2 fold. In addition, the toxicity to oocytes result in series [2] is “toxic”. In addition, in series [3], the “potentiation of 10 µM ATP-evoked currents by co-applied DTT” value is “neither 10, 30, nor 100 µM DTT potentiated the ATP-evoked currents”.

For `O=C(O)c1cc(SSc2ccc([N+](=O)[O-])c(C(=O)O)c2)ccc1[N+](=O)[O-]` [DTNB, 5,5’-dithiobis-(2-nitrobenzoic) acid], in series [1] (5 min, 20 min washout), the “effect of alkylator plus Zn(II) treatment on Zn(II)-induced potentiation” value (shortened to “effect … on Zn(II)-induced potentiation”) was “neither of the reagents blocked”.

As to `NC(=O)CI` [IA, Iodoacetamide], in series [1] (300 µM IA + 10 µM Zn(II), 5 min, 20 min washout), the “ATP-evoked currents after IA plus Zn(II) treatment” value is recorded as “not increased”. Also, the “effect … on Zn(II)-induced potentiation” value in series [1] (5 min, 20 min washout) is on record as “abolished the Zn(II)-induced potentiation”. Moreover, the “effect of alkylator plus Zn(II) treatment on Zn(II) potentiation/modulation” value in series [4] is “annulled the Zn(II) potentiation”. Besides, the “fold enhancement” value in series [4] (after IA + 30 µM Zn(II) treatment) was 8.6 ± 3.3 fold.

As for `O=C(O)CI` [IAc, Iodoacetate], the “effect … on Zn(II)-induced potentiation” value in series [1] (5 min, 20 min washout) is “neither of the reagents blocked”.

On to `C[N+](C)(C)CCSS(C)(=O)=O` [MTSET, 2-(trimethylammonium)ethyl methanethiosulfonate], for which, in series [5], the “effect of MTSET treatment on Zn(II) potentiation” value was “diminish the Zn(II) potentiation”.

As to `CCN1C(=O)C=CC1=O` [NEM, N-ethylmaleimide], the “time the lack of metal potentiation endured after NEM treatment” value in series [6] is recorded as “at least 1 h”. Also, the “fold increase of ATP-evoked currents after treatment” value in series [1] (10 µM ATP, after 300 µM NEM plus 10 µM Zn(II) treatment, vs first ATP current) is 4.0 ± 1.0 fold. Moreover, in series [1] (5 min, 20 min washout), the “effect … on Zn(II)-induced potentiation” value is listed as “abolished the Zn(II)-induced potentiation”. For the same molecule, in series [4], the “effect of alkylator plus Zn(II) treatment on Zn(II) potentiation/modulation” value is recorded as “Did Not Annul”. For the same molecule, in series [4] (after NEM + 30 µM Zn(II) treatment), the “fold enhancement” value worked out at 3.3 ± 0.5 fold.
